Results taken from patent US20100227828A1, “NEW SYNERGISTIC PHYTOCHEMICAL COMPOSITION FOR THE TREATMENT OF OBESITY” (LAILA NUTRACEUTICALS, priority 2007, published 2010).

How the values were obtained:
5-lipoxygenase = experiment: 5-Lipoxygenase inhibitory activity, colorimetric method; format: biochemical
Protocol: The new dietary/pharmaceutical supplement compositions are screened for their 5-lipoxygenase inhibitory potential using colorimetric method. The assay mixture contained 50 mM phosphate buffer (pH 6.3), 5-lipoxygenase, various concentrations of test composition (5 μg, 10 μg, 20 μg) in dimethylsulphoxide and linolenic acid in a total volume of 0.5 mL, after 5 min incubation of above reaction mixture 0.5 mL ferric xylenol orange reagent is added and OD is measured after two minutes at 585 nm using spectrophotometer. Controls are run along with test in a similar manner except using vehicle instead of test substance solution. Percent inhibition is calculated by comparing absorbance of the test solution with that of control.

[1] = Protective effect against diet induced obesity in rats; format: in vivo, Sprague-Dawley rats; conditions: 7 mg/kg oral per day, 8 weeks with high fat diet
Protocol: Selected healthy Sprague-Dawley rats were randomly assigned to control or various treatment groups (n=6). All the animals allocated for protective phase of the study were on dietary intervention by feeding high fat diet ad libitum and the animals allocated to treatment groups were simultaneously given oral administration of 250 mg/kg of composition-1 or 7 mg/kg sibutramine per day in […] of 0.5% CMC, using gastric tube for the entire 8 week study duration. The test animals of the control group were simultaneously given 10 ml/kg of 0.5% CMC. Food and water consumption were recorded daily, body weights were recorded weekly and fasting blood samples were collected before initiation, after 4th week and 8th week (termination) of the study.

Structure (SMILES) | % of inhibition (5-Lipoxygenase) (5-lipoxygenase; 5 μg) | % of inhibition (5-Lipoxygenase) (5-lipoxygenase; 10 μg) | reduction in weight gain [1]
C[C@H](Cc1ccc(O)c(O)c1)[C@@H](C)Cc1ccc(O)c(O)c1 [NDGA, Nordihydroguiaretic acid] | 50.2% | 77.35% | –
CC(C)CC(N(C)C)C1(c2ccc(Cl)cc2)CCC1 (stereo not drawn) [sibutramine] | – | – | 28.2%
